Assay results taken from patent US12168763B2, “Microorganisms and methods for reducing bacterial contamination” (Melio Peptide Systems Inc., priority 2020, dated 2024).
“Also recorded” adds a separate entry of the source. Where no end group is shown, it is not given here.

Key:
[1] = tested on: P. pentosaceus NCCB 31016; assay: Soft-agar overlay assay of S. cerevisiae M2 strain expressing pediocin PA-1 variants; details: S. cerevisiae M2 transformants; compared to wild-type pediocin PA-1
[2] = tested on: L. delbrueckii CCUG 34222T; assay: as above; details: S. cerevisiae M2 transformants; compared to wild-type pediocin PA-1
L. reuteri CCUG 32624 = assay: Soft-agar overlay screen of peptide-expressing yeast (BY4742)
L. fermentum NCCB 46038 [3] = assay: as above
[4] = tested on: P. pentosaceus NCCB 31016; assay: as above; details: soft-agar overlay, peptide-expressing yeast
E. faecium NCCB 86023 = assay: as above
W. confusa CCUG30113 = assay: as above
W. confusa CCUG30943 = assay: as above
L. lactis NCCB 26066 = assay: as above
[5] = tested on: L. delbrueckii CCUG 34222; assay: as above
L. fermentum NCCB 46038 [6] = assay: Soft-agar overlay assay of S. cerevisiae BY4742 secreting persulcatusin variants from pHVXU plasmids; details: for Growth inhibition zones of L. fermentum: FIG. 7, BY4742 with pHVXU plasmids, 30° C., 1 day; for Increase in Activity: random mutagenesis clones of persulcatusin, increase of growth inhibition zones; for Change in activity: alanine scanning of persulcatusin, relative to wild-type, soft-agar overlay
Lactobacillus amylovorus = assay: Soft-agar overlay screen of peptide-expressing yeast, other lactic acid bacteria; assay type: cell-based; details: sometimes weak
Lactobacillus casei = assay: as above; assay type: cell-based; details: sometimes weak

Substance	Growth inhibition zone (halo) of P. pentosaceus [1]	Growth inhibition zone (halo) of L. delbrueckii [2]	Inhibition, L. reuteri CCUG 32624 (L. reuteri CCUG 32624)	Inhibition, L. fermentum NCCB 46038 (L. fermentum NCCB 46038 [3])	Inhibition, P. pentosaceus NCCB 31016 [4]	Inhibition, E. faecium NCCB 86023 (E. faecium NCCB 86023)	Inhibition, W. confusa CCUG30113 (W. confusa CCUG30113)	Inhibition, W. confusa CCUG30943 (W. confusa CCUG30943)	Inhibition, L. lactis NCCB 26066 (L. lactis NCCB 26066)	Inhibition, L. delbrueckii CCUG 34222 [5]	further results
Engineered pediocin PA-1 with [pediocin PA-1 K1A/G19A, Engineered pediocin PA-1 with [K1A/G19A]]	Growth inhibition zones of P. pentosaceus and L. delbrueckii were observable	Growth inhibition zones of P. pentosaceus and L. delbrueckii were observable									
Coagulin A			−	−	+	+	−	−	+	+	
Leucocin C			−	−	+	+	−	−	+	+	
Engineered pediocin PA-1 with [pediocin PA-1 T22A, Engineered pediocin PA-1 with [T22A]]	Growth inhibition zones of P. pentosaceus were observable										
Engineered pediocin PA-1 with [K20A] (KYYGNGVTCGKHSCSVDWGAATTCIINNGAMAWATGGHQGNHKC; ends and bridges not checked; cysteine pairing not given here) [pediocin PA-1 K20A]	Growth inhibition zones of P. pentosaceus were observable	Growth inhibition zones of L. delbrueckii were observable									
Engineered pediocin PA-1 with [pediocin PA-1 K1A, Engineered pediocin PA-1 with [K1A]]	largest halo	largest halo									
Enterocin A			−	−	+	−	−	−	+	+	
Ubericin A			−	−	+	−	−	−	+	+	
Bactofencin A			−	+	+	+	−	−	+	+	
Wild-type persulcatusin [Wild-type persulcatusin [Ixodes persulcatus]]			−	+	−	−	+	−	−	−	Growth inhibition zones of L. fermentum (L. fermentum NCCB 46038 [6]): Growth inhibition zones of L. fermentum are observable
Engineered pediocin PA-1 with [pediocin PA-1 K1A/T22A, Engineered pediocin PA-1 with [K1A/T22A]]	largest halo										
Engineered pediocin PA-1 with [S13A] (KYYGNGVTCGKHACSVDWGKATTCIINNGAMAWATGGHQGNHKC; ends and bridges not checked; cysteine pairing not given here) [pediocin PA-1 S13A]	Growth inhibition zones of P. pentosaceus were observable	Growth inhibition zones of L. delbrueckii were observable									
Hiracin JM79			−	−	−	+	−	−	−	−	
Engineered pediocin PA-1 with [pediocin PA-1 K1A/S13A, Engineered pediocin PA-1 with [K1A/S13A]]	Growth inhibition zones of P. pentosaceus and L. delbrueckii were observable	Growth inhibition zones of P. pentosaceus and L. delbrueckii were observable									
Engineered pediocin PA-1 with [S15A] (KYYGNGVTCGKHSCAVDWGKATTCIINNGAMAWATGGHQGNHKC; ends and bridges not checked; cysteine pairing not given here) [pediocin PA-1 S15A]	Growth inhibition zones of P. pentosaceus were observable	Growth inhibition zones of L. delbrueckii were observable									
Engineered pediocin PA-1 with [pediocin PA-1 K1T, Engineered pediocin PA-1 with [K1T]]		slightly bigger halo than wild-type pediocin PA-1; also recorded: Growth inhibition zones were observable									
Engineered persulcatusin with [Mutation S7-192-1, Engineered persulcatusin with [F6L/G9D/R13S/H14Q]]			+	+	−	−	+	+	−	−	Antibacterial activity against Lactobacillus amylovorus (Lactobacillus amylovorus): showed some antibacterial activity; Antibacterial activity against Lactobacillus casei (Lactobacillus casei): showed some antibacterial activity; Growth inhibition zones of L. fermentum (L. fermentum NCCB 46038 [6]): significantly bigger zones; Increase in Activity (L. fermentum NCCB 46038 [6]): ++++
Engineered pediocin PA-1 with [pediocin PA-1 G19A, Engineered pediocin PA-1 with [G19A]]	Growth inhibition zones of P. pentosaceus were observable										
Engineered persulcatusin with [Mutation S7-144-75, Engineered persulcatusin with [R13S/A26D]]											Increase in Activity (L. fermentum NCCB 46038 [6]): ++
Engineered pediocin PA-1 with [pediocin PA-1 K1A/S15A, Engineered pediocin PA-1 with [K1A/S15A]]	Growth inhibition zones of P. pentosaceus and L. delbrueckii were observable	Growth inhibition zones of P. pentosaceus and L. delbrueckii were observable									
Engineered persulcatusin with [Mutation R38A, Engineered persulcatusin with [R38A]]											Change in activity (L. fermentum NCCB 46038 [6]): +
Engineered persulcatusin with [Mutation S7-144-59, Engineered persulcatusin with [R13S/R16K]]											Increase in Activity (L. fermentum NCCB 46038 [6]): +
Q31A: persulcatusin (SEQ ID NO: 1) alanine-scan variant Q31A (GFGCPFNQGACHRHCRSIGRRGGYCAGLFKATCTCYSR; listed as Ixodes persulcatus) [Mutation Q31A]											Change in activity (L. fermentum NCCB 46038 [6]): −
Engineered pediocin PA-1 with [pediocin PA-1 K1A/K20A, Engineered pediocin PA-1 with [K1A/K20A]]	Growth inhibition zones of P. pentosaceus and L. delbrueckii were observable	Growth inhibition zones of P. pentosaceus and L. delbrueckii were observable									
Engineered persulcatusin with [Mutation S7-140-34, Engineered persulcatusin with [R13S/R20T]]											Increase in Activity (L. fermentum NCCB 46038 [6]): ++
